Data reported in US6372804B1, “Noxious-insect repellent” (Kanebo, Ltd., priority 1991, dated 2002).

Each compound was assayed on imagoes of the tiger mosquito, Aedes albopictus (assay: noxious-insect repellency test (treated forearm in a cage of tiger mosquitoes, percent repellency from biting marks)). Conditions: content 0.05% (wt. %) in 40 wt. % ethanol aqueous solution; an hour after application.
Assay type: in vivo
Description: In each example, the noxious-insect repellency test was conducted as follows:
Test method of noxious-insect repelling effect and durability thereof In order to assess the repelling effect against imagoes of the tiger mosquito, Aedes albopictus, the following test was conducted at a room temperature of 30° C. and a relative humidity of 70% in an air-conditioned room. 10 ml each of test samples was applied to left and right forearms. Each treated forearm was introduced into a wire gauze cage (20 cm L.×15 cm Dia.) containing 50 female and 50 male tiger mosquitoes 5-7 days old after eclosion, for 15 minutes to afford time for biting. The assessment was repeated 30 minutes, 1 hour, 2 hours, 4 hours and 6 hours after the test sample was applied. The number of marks made by biting within each biting time was counted and a percent repellency was calculated using the following formula:
Percent repellency=(X−Y)/X×100 (%)
X: the number of the marks made by biting when the test sample was not applied,
Y: the number of the marks made by biting when the test sample was applied.
In the case of CC(C)C1CCC(C)C(CO)C1O (centres unmarked) [HMMO, 2-hydroxymethyl-menthol], the Percent repellency is reported as 18%.

Same assay, conditions: content 0.1% (wt. %) in 40 wt. % ethanol aqueous solution; an hour after application
In the case of CC1CCC(C(C)(C)O)C(=O)C1C (centres unmarked) [8-hydroxy-2-methyl-p-menthan-3-one], the Percent repellency is reported as 30%. With CC(C)C1CCC(C)C(CO)C1O (centres unmarked) [HMMO, 2-hydroxymethyl-menthol] the Percent repellency was 48%.

Same assay, conditions: content 1% (wt. %) in 40 wt. % ethanol aqueous solution; an hour after application
For CC1CCC(C(C)(C)O)C(=O)C1C (centres unmarked) [8-hydroxy-2-methyl-p-menthan-3-one], the Percent repellency was 70%. CC(C)C1CCC(C)C(CO)C1O (centres unmarked) [HMMO, 2-hydroxymethyl-menthol] gave a Percent repellency of 78%.

Same assay, conditions: content 3% (wt. %) in 40 wt. % ethanol aqueous solution; an hour after application
For CC1CCC(C(C)(C)O)C(=O)C1C (centres unmarked) [8-hydroxy-2-methyl-p-menthan-3-one], the Percent repellency was 94%. Compound CC(C)C1CCC(C)C(CO)C1O (centres unmarked) [HMMO, 2-hydroxymethyl-menthol] has a Percent repellency of 92%.

Same assay, conditions: lotion or milky lotion containing the compound, tiger mosquito imagoes
CCCCC(O)C1CC(C)CCC1=O (centres unmarked) [2-(1-hydroxyamyl)-4-methyl-cyclohexanone] was tested, and the “noxious-insect repelling effect and durability (result in words)” value was “excellent noxious-insect repelling effect and durability”. With CCCC(O)C1C(O)CCC1CC (centres unmarked) [2-(1-hydroxybutyl)-3-ethyl-cyclopentanol] the “noxious-insect repelling effect and durability (result in words)” value was “excellent noxious-insect repelling effect and durability”. In the case of CCCC(O)C1C(=O)CCC1CC (centres unmarked) [2-(1-hydroxybutyl)-3-ethyl-cyclopentanone], the “noxious-insect repelling effect and durability (result in words)” value is reported as “excellent noxious-insect repelling effect and durability”. For CC(O)C1C(O)CCC(C)C1C (centres unmarked) [2-(1-hydroxyethyl)-3,4-dimethyl-cyclohexanol], the “noxious-insect repelling effect and durability (result in words)” value was “excellent noxious-insect repelling effect and durability”. For CC(O)C1C(=O)CCC(C)C1C (centres unmarked) [2-(1-hydroxyethyl)-3,4-dimethyl-cyclohexanone], the “noxious-insect repelling effect and durability (result in words)” value was “excellent noxious-insect repelling effect and durability”. In the case of CC1CCC(O)C(C(C)O)C1 (centres unmarked) [2-(1-hydroxyethyl)-4-methyl-cyclohexanol], the “noxious-insect repelling effect and durability (result in words)” value is reported as “excellent noxious-insect repelling effect and durability”. For CC1CCC(=O)C(C(C)O)C1 (centres unmarked) [2-(1-hydroxyethyl)-4-methyl-cyclohexanone], the “noxious-insect repelling effect and durability (result in words)” value was “excellent noxious-insect repelling effect and durability”. CC(O)C1CCCCCCCCC1O (centres unmarked) [2-(1-hydroxyethyl)-cyclodecanol] was tested, and the “noxious-insect repelling effect and durability (result in words)” value was “excellent noxious-insect repelling effect and durability”. With CC(O)C1CCCCCCCCCCC1=O (centres unmarked) [2-(1-hydroxyethyl)-cyclododecanone] the “noxious-insect repelling effect and durability (result in words)” value was “excellent noxious-insect repelling effect and durability”. With CC(O)C1CCCCCC1O (centres unmarked) [2-(1-hydroxyethyl)-cycloheptanol] the “noxious-insect repelling effect and durability (result in words)” value was “excellent noxious-insect repelling effect and durability”. For CC(O)C1CCCCCC1=O (centres unmarked) [2-(1-hydroxyethyl)-cycloheptanone], the “noxious-insect repelling effect and durability (result in words)” value was “excellent noxious-insect repelling effect and durability”. In the case of CC(O)C1CCCCCCC1O (centres unmarked) [2-(1-hydroxyethyl)-cyclooctanol], the “noxious-insect repelling effect and durability (result in words)” value is reported as “excellent noxious-insect repelling effect and durability”. CC(O)C1CCCCCCC1=O (centres unmarked) [2-(1-hydroxyethyl)-cyclooctanone] was tested, and the “noxious-insect repelling effect and durability (result in words)” value was “excellent noxious-insect repelling effect and durability”. With CC1CCC(C(C)(C)O)C1=O (centres unmarked) [2-(1-hydroxyisopropyl)-5-methyl-cyclopentanone] the “noxious-insect repelling effect and durability (result in words)” value was “excellent noxious-insect repelling effect and durability”. With CCC(O)C1CC(C)CCC1O (centres unmarked) [2-(1-hydroxypropyl)-4-methyl-cyclohexanol] the “noxious-insect repelling effect and durability (result in words)” value was “excellent noxious-insect repelling effect and durability”. In the case of CCC1(CO)CCCCC1O (centres unmarked) [2-hydroxymethyl-2-ethyl-cyclohexanol], the “noxious-insect repelling effect and durability (result in words)” value is reported as “excellent noxious-insect repelling effect and durability”. CCC1(CO)CCCC1O (centres unmarked) [2-hydroxymethyl-2-ethyl-cyclopentanol] was tested, and the “noxious-insect repelling effect and durability (result in words)” value was “excellent noxious-insect repelling effect and durability”. In the case of CC(C)C1(CO)CCCCC1O (centres unmarked) [2-hydroxymethyl-2-isopropyl-cyclohexanol], the “noxious-insect repelling effect and durability (result in words)” value is reported as “excellent noxious-insect repelling effect and durability”. CC(C)C1(CO)CCCC1O (centres unmarked) [2-hydroxymethyl-2-isopropyl-cyclopentanol] was tested, and the “noxious-insect repelling effect and durability (result in words)” value was “excellent noxious-insect repelling effect and durability”. CCCCCCCCC1(CO)CCCCC1O (centres unmarked) [2-hydroxymethyl-2-octyl-cyclohexanol] was tested, and the “noxious-insect repelling effect and durability (result in words)” value was “excellent noxious-insect repelling effect and durability”. For CCCCCCCCC1(CO)CCCC1O (centres unmarked) [2-hydroxymethyl-2-octyl-cyclopentanol], the “noxious-insect repelling effect and durability (result in words)” value was “excellent noxious-insect repelling effect and durability”. With CCCCCCCCCCCC1(CO)CCCCC1O (centres unmarked) [2-hydroxymethyl-2-undecyl-cyclohexanol] the “noxious-insect repelling effect and durability (result in words)” value was “excellent noxious-insect repelling effect and durability”. CCCCCCCCCCCC1(CO)CCCC1O (centres unmarked) [2-hydroxymethyl-2-undecyl-cyclopentanol] was tested, and the “noxious-insect repelling effect and durability (result in words)” value was “excellent noxious-insect repelling effect and durability”. With CC1CCC(=O)C(CO)C1C (centres unmarked) [2-hydroxymethyl-3,4-dimethyl-cyclohexanone] the “noxious-insect repelling effect and durability (result in words)” value was “excellent noxious-insect repelling effect and durability”. In the case of CC(C)(C)C1CCC(O)C(CO)C1 (centres unmarked) [2-hydroxymethyl-4-(t-butyl)-cyclohexanol], the “noxious-insect repelling effect and durability (result in words)” value is reported as “excellent noxious-insect repelling effect and durability”. For CC(C)(C)C1CCC(=O)C(CO)C1 (centres unmarked) [2-hydroxymethyl-4-(t-butyl)-cyclohexanone], the “noxious-insect repelling effect and durability (result in words)” value was “excellent noxious-insect repelling effect and durability”. CCC1CC(O)C(CO)C1 (centres unmarked) [2-hydroxymethyl-4-ethyl-cyclopentanol] was tested, and the “noxious-insect repelling effect and durability (result in words)” value was “excellent noxious-insect repelling effect and durability”. In the case of CCC1CC(=O)C(CO)C1 (centres unmarked) [2-hydroxymethyl-4-ethyl-cyclopentanone], the “noxious-insect repelling effect and durability (result in words)” value is reported as “excellent noxious-insect repelling effect and durability”. CC(C)C1CC(C)C(O)C(CO)C1 (centres unmarked) [2-hydroxymethyl-4-isopropyl-6-methyl-cyclohexanol] was tested, and the “noxious-insect repelling effect and durability (result in words)” value was “excellent noxious-insect repelling effect and durability”. With CC1CC(C(C)C)CC(CO)C1=O (centres unmarked) [2-hydroxymethyl-4-isopropyl-6-methyl-cyclohexanone] the “noxious-insect repelling effect and durability (result in words)” value was “excellent noxious-insect repelling effect and durability”. CC1CCC(=O)C(CO)C1 (centres unmarked) [2-hydroxymethyl-4-methyl-cyclohexanone] was tested, and the “noxious-insect repelling effect and durability (result in words)” value was “excellent noxious-insect repelling effect and durability”. With O=C1CCCCCCCCCCC1CO (centres unmarked) [2-hydroxymethyl-cyclododecanone] the “noxious-insect repelling effect and durability (result in words)” value was “excellent noxious-insect repelling effect and durability”. OCC1CCCCCCC1O (centres unmarked) [2-hydroxymethyl-cyclooctanol] was tested, and the “noxious-insect repelling effect and durability (result in words)” value was “excellent noxious-insect repelling effect and durability”. O=C1CCCCCCC1CO (centres unmarked) [2-hydroxymethyl-cyclooctanone] was tested, and the “noxious-insect repelling effect and durability (result in words)” value was “excellent noxious-insect repelling effect and durability”. With CC(C)C(O)C1C2CCC(C)(C1O)C2(C)C (centres unmarked) [3-(1-hydroxy-2-methylpropyl)-borneol] the “noxious-insect repelling effect and durability (result in words)” value was “excellent noxious-insect repelling effect and durability”. In the case of CC(C)C(O)C1C(=O)C2(C)CCC1C2(C)C (centres unmarked) [3-(1-hydroxy-2-methylpropyl)-camphor], the “noxious-insect repelling effect and durability (result in words)” value is reported as “excellent noxious-insect repelling effect and durability”. For CCCC(O)C1C2CCC(C)(C1O)C2(C)C (centres unmarked) [3-(1-hydroxybutyl)-borneol], the “noxious-insect repelling effect and durability (result in words)” value was “excellent noxious-insect repelling effect and durability”. With CCCC(O)C1C(=O)C2(C)CCC1C2(C)C (centres unmarked) [3-(1-hydroxybutyl)-camphor] the “noxious-insect repelling effect and durability (result in words)” value was “excellent noxious-insect repelling effect and durability”. CC(O)C1C2CCC(C)(C1O)C2(C)C (centres unmarked) [3-(1-hydroxyethyl)-borneol] was tested, and the “noxious-insect repelling effect and durability (result in words)” value was “excellent noxious-insect repelling effect and durability”. CC(O)C1C(=O)C2(C)CCC1C2(C)C (centres unmarked) [3-(1-hydroxyethyl)-camphor] was tested, and the “noxious-insect repelling effect and durability (result in words)” value was “excellent noxious-insect repelling effect and durability”. With CCCCCC(O)C1C(=O)C2(C)CCC1C2(C)C (centres unmarked) [3-(1-hydroxyhexyl)-camphor, reference compound] the “noxious-insect repelling effect and durability (result in words)” value was “does not exhibit the repelling effect”. With CC12CCC(C(CO)C1=O)C2(C)C (centres unmarked) [3-(1-hydroxymethyl)-camphor] the “noxious-insect repelling effect and durability (result in words)” value was “excellent noxious-insect repelling effect and durability”. CCC(O)C1C2CCC(C)(C1O)C2(C)C (centres unmarked) [3-(1-hydroxypropyl)-borneol] was tested, and the “noxious-insect repelling effect and durability (result in words)” value was “excellent noxious-insect repelling effect and durability”. For CCC(O)C1C(=O)C2(C)CCC1C2(C)C (centres unmarked) [3-(1-hydroxypropyl)-camphor], the “noxious-insect repelling effect and durability (result in words)” value was “excellent noxious-insect repelling effect and durability”. With CC(C)C1CCC(C)C(CO)C1O (centres unmarked) [HMMO, 2-hydroxymethyl-menthol] the “noxious-insect repelling effect and durability (result in words)” value was “excellent noxious-insect repelling effect and durability”. For CC(C)C1CCC(C)C(CO)C1=O (centres unmarked) [HMMT, 2-hydroxymethyl-menthone], the “noxious-insect repelling effect and durability (result in words)” value was “excellent noxious-insect repelling effect and durability”. CC1CCC(C(C)(C)O)C(O)C1C (centres unmarked) [MMD, p-menthane-2-methyl-3,8-diol] was tested, and the “noxious-insect repelling effect and durability (result in words)” value was “excellent noxious-insect repelling effect and durability”. In the case of C=C1C(C)CCC(C(C)(C)O)C1O (centres unmarked) [MMED, p-menthane-2-methylene-3,8-diol], the “noxious-insect repelling effect and durability (result in words)” value is reported as “excellent noxious-insect repelling effect and durability”. C=CCC1C(C)CCC(C(C)(C)O)C1O (centres unmarked) [p-menthane-2-(2-propenyl)-3,8-diol] was tested, and the “noxious-insect repelling effect and durability (result in words)” value was “excellent noxious-insect repelling effect and durability”.
